These results are taken from ChEMBL document CHEMBL1275248, “Two novel antibiotic resistance genes, tet(44) and ant(6)-Ib, are located within a transferable pathogenicity island in Campylobacter fetus subsp. fetus” (2010).

Structures are written as SMILES.

Assay [1] in a line: Antimicrobial activity against nalidixic acid-resistant Campylobacter fetus subsp. fetus IMD523-06 bovine isolate harboring tet(44) and ant(6)-Ib resistance gene in presence of 5% lacked horse blood. Format: functional.
Assay [2] can be described thus: Antimicrobial activity against Campylobacter fetus subsp. fetus CA73 harboring pCA73 carrying tet(44) resistance gene of 1516477 in presence of 5% lacked horse blood. Type of assay: functional.
Assay [3] can be described thus: Antimicrobial activity against kanamycin-resistant Campylobacter fetus subsp. fetus CA74 harboring deletion in tet(44)::pCA64 resistant gene in presence of 5% lacked horse blood. Format: functional.
A short description of assay [4]: Antimicrobial activity against Campylobacter fetus subsp. fetus CA75 harboring pCA75 carrying ant(6)-Ib resistant gene of 1516477 in presence of 5% lacked horse blood. Format: functional.
Assay [5] can be described thus: Antimicrobial activity against kanamycin-resistant Campylobacter fetus subsp. fetus CA76 harboring deletion in ant(6)-Ib::pCA76 in presence of 5% lacked horse blood. Format: functional.
A short description of assay [6]: Antimicrobial activity against Campylobacter fetus subsp. fetus CA80 harboring ciprofloxacin-resistant gene and IMD523-06 pathogenicity island with tet(44) and ant(6)-Ib resistant marker gene in presence of 5% lacked horse blood. Format: functional.
The nature of assay [7]: Antimicrobial activity against ciprofloxacin-resistant Campylobacter fetus subsp. fetus 1516477 human isolate lacking tet(44) and ant(6)-Ib resistance genes in presence of 5% lacked horse blood.

Broadly, the MIC is the lowest concentration that inhibits growth of the organism. For the molecule `C[C@H]1c2cccc(O)c2C(=O)C2=C(O)[C@]3(O)C(=O)C(C(N)=O)=C(O)[C@@H](N(C)C)[C@@H]3[C@@H](O)[C@@H]21.O` [DOXYCYCLINE], the minimum inhibitory concentration (MIC) was determined as 8 µg/mL in assay [1]; 32 µg/mL in assay [2]; 0.5 µg/mL in assay [3]; 0.5 µg/mL in assay [4]; 8 µg/mL in assay [5]; 4 µg/mL in assay [6]. Besides, the MIC in assay [7] turned out to be 0.5 µg/mL.

Take `CN(C)c1ccc(O)c2c1C[C@H]1C[C@H]3[C@H](N(C)C)C(O)=C(C(N)=O)C(=O)[C@@]3(O)C(O)=C1C2=O` [MINOCYCLINE]: the MIC in assay [1] stood at 16 µg/mL; in assay [2], 32 µg/mL; in assay [3], 2 µg/mL; in assay [4], 1 µg/mL; in assay [5] it was 16 µg/mL; in assay [6], 16 µg/mL. In addition, the MIC in assay [7] is 1 µg/mL.

For `CN[C@@H]1[C@H](O[C@H]2[C@H](O[C@H]3[C@H](O)[C@@H](O)[C@H](N=C(N)N)[C@@H](O)[C@@H]3N=C(N)N)O[C@@H](C)[C@]2(O)C=O)O[C@@H](CO)[C@H](O)[C@H]1O` [STREPTOMYCIN], the MIC in assay [1] was > 64 µg/mL; in assay [2], ≤ 1 µg/mL; in assay [3] it was > 64 µg/mL; in assay [4], 64 µg/mL; in assay [5] it was ≤ 1 µg/mL; in assay [6] it was 64 µg/mL. In assay [7], the MIC was ≤ 1 µg/mL.

On to `CN(C)[C@@H]1C(O)=C(C(N)=O)C(=O)[C@@]2(O)C(O)=C3C(=O)c4c(O)cccc4[C@@](C)(O)[C@H]3C[C@@H]12` [TETRACYCLINE], for which the MIC in assay [1] is 16 µg/mL; in assay [2] it was > 32 µg/mL; in assay [3], 1 µg/mL; in assay [4], 1 µg/mL; in assay [5], 16 µg/mL; in assay [6] it was 16 µg/mL. Further, the MIC in assay [7] was found to be 1 µg/mL.
